We go through twelve molecules from PubChem BioAssay (NCI).

Among the test systems are MOLT-4 leukemia; A549 NSCLC; HCC-2998 colon; SNB-75 CNS; MCF7 breast; TK-10 renal; OVCAR-8 ovarian; NCI-H460 lung; M14 melanoma; U251 CNS.
What all share (assay): inhibition of tumour cell growth, NCI panel, 48 h

Values joined by “and” are separate entries in the source; they are usually repeats but may differ in a detail not shown here. Equal values may be shown once.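 Cultured in 96-well plates, cells were exposed to test compound for 48 hours across five concentrations. Abbreviation: GI50, concentration required for 50% inhibition of growth. The concentration for full growth arrest is given as TGI.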 Where only a bound is given, the exact number is not on record here.

In the case of `O=C(Nc1cccc2cnccc12)c1cc2c(cc1Cl)Sc1nccn1S2(=O)=O`, the TGI was 59.4 µM with MOLT-4 leukemia; above 100 µM with A549 NSCLC; 29.9 µM in the assay with HCC-2998 colon; 47.4 µM in the assay on SNB-75 CNS; 37.1 µM in the assay with MCF7 breast; 59.2 µM in the assay on TK-10 renal. For the same molecule, the TGI in the assay on OVCAR-8 ovarian was 62.7 µM; in the assay with NCI-H460 lung it was 24.1 µM; in the assay with M14 melanoma, above 100 µM; with U251 CNS, 32.1 µM.

For `COc1ccc(/C(=N/O)c2ccccc2-c2nc3ccccc3c(=O)n2-c2ccc(S(=O)(=O)Nc3ncccn3)cc2)cc1C`, the TGI in the assay with MOLT-4 leukemia was 23.8 µM; in the assay on A549 NSCLC it was above 31.6 µM; in the assay with HCC-2998 colon it was 21.7 µM; with SNB-75 CNS, 26.6 µM; with MCF7 breast it was 22.2 µM; in the assay with TK-10 renal, above 31.6 µM. Moreover, the TGI is above 31.6 µM with OVCAR-8 ovarian, above 31.6 µM in the assay with NCI-H460 lung, above 31.6 µM in the assay with M14 melanoma and 22.9 µM with U251 CNS.

As to `CC1(C)O[C@@H]2COC(=O)[C@@H]2O1`, the TGI in the assay on MOLT-4 leukemia, with A549 NSCLC, in the assay with HCC-2998 colon, in the assay with SNB-75 CNS, in the assay on MCF7 breast and in the assay with TK-10 renal was above 100 µM each time. Moreover, the TGI in the assay on OVCAR-8 ovarian, with NCI-H460 lung, with M14 melanoma and in the assay with U251 CNS was above 100 µM each time.

Turning to `CC(=O)NS(=O)(=O)c1ccc(NC(=O)c2c3ccccc3nc3ccccc23)cc1`, the TGI in the assay with MOLT-4 leukemia, in the assay with A549 NSCLC, with HCC-2998 colon, in the assay with SNB-75 CNS, in the assay with MCF7 breast and in the assay with TK-10 renal was above 100 µM throughout. The TGI with OVCAR-8 ovarian, with NCI-H460 lung, with M14 melanoma and with U251 CNS was above 100 µM in each case.

Turning to `OC[C@@H](O)[C@H]1NC[C@@H](O)[C@H]1O`, the TGI in the assay on MOLT-4 leukemia, with A549 NSCLC, with HCC-2998 colon, in the assay with SNB-75 CNS, in the assay on MCF7 breast and in the assay with TK-10 renal was above 100 µM throughout. The TGI in the assay on OVCAR-8 ovarian, with NCI-H460 lung, in the assay with M14 melanoma and with U251 CNS was above 100 µM each time.

Take `C[n+]1c(-c2ccccc2)cc2/c(=C\c3ccc([N+](=O)[O-])cc3)c3ccccc3n21`: the TGI is above 30.8 µM with MOLT-4 leukemia; above 100 µM in the assay on A549 NSCLC; above 100 µM with HCC-2998 colon; 15.6 µM with SNB-75 CNS; above 94.1 µM in the assay with MCF7 breast; above 100 µM with TK-10 renal. Besides, the TGI in the assay with OVCAR-8 ovarian is above 26 µM; with NCI-H460 lung it was above 100 µM; with M14 melanoma, above 37.6 µM; with U251 CNS it was 19.8 µM.

Regarding `COc1ccc(N[C@H](CSc2ccc(C)cc2)c2ccc(F)cc2)cc1`, the TGI with MOLT-4 leukemia, with A549 NSCLC, in the assay on HCC-2998 colon, in the assay with SNB-75 CNS, with MCF7 breast and in the assay on TK-10 renal was above 100 µM throughout. Also, the TGI with OVCAR-8 ovarian, with NCI-H460 lung, in the assay on M14 melanoma and with U251 CNS was above 100 µM each time.

With `Nc1c2ccccc2nc2c1ccc1ncccc12`, the TGI in the assay with MOLT-4 leukemia was above 100 µM; with A549 NSCLC it was above 100 µM; with HCC-2998 colon it was 39.1 µM; in the assay on SNB-75 CNS it was 99.4 µM; in the assay with MCF7 breast, 72.1 µM; in the assay on TK-10 renal it was above 100 µM. Besides, the TGI is above 100 µM with OVCAR-8 ovarian, 47.4 µM in the assay on NCI-H460 lung, 43 µM in the assay on M14 melanoma and above 100 µM in the assay with U251 CNS.

For `CCSC1=CC(=O)c2nc3ccccc3c3ccnc1c23`, the TGI with MOLT-4 leukemia came out at 15.3 µM; in the assay on A549 NSCLC, 22.9 µM; in the assay with HCC-2998 colon, 25 µM; with SNB-75 CNS, 26.6 µM; with MCF7 breast it was 4.79 µM; with TK-10 renal it was 26.5 µM. The TGI is above 100 µM in the assay with OVCAR-8 ovarian, 23.8 µM in the assay with NCI-H460 lung, 6.15 µM in the assay with M14 melanoma and 14.5 µM with U251 CNS.

As for `CC(C)(C)N=c1n(C(C)(C)C)oc(=O)n1C(C)(C)C`, the TGI with MOLT-4 leukemia, in the assay on A549 NSCLC, in the assay on HCC-2998 colon, in the assay with SNB-75 CNS, in the assay with MCF7 breast and in the assay on TK-10 renal was above 100 µM throughout. Besides, the TGI in the assay on OVCAR-8 ovarian, in the assay with NCI-H460 lung, with M14 melanoma and in the assay on U251 CNS was above 100 µM throughout.

On to `CCCCn1c2c(n(CCCC)c1=S)-c1c(n(CCCC)c(=S)n1CCCC)S[Se][Se]S2`, for which the TGI is above 37.2 µM with MOLT-4 leukemia; above 88.7 µM in the assay on A549 NSCLC; 61.6 µM with HCC-2998 colon; 31.5 µM in the assay with SNB-75 CNS; above 100 µM in the assay on MCF7 breast; 30.5 µM with TK-10 renal. The TGI with OVCAR-8 ovarian was 29.9 µM; with NCI-H460 lung it was above 80 µM; in the assay with M14 melanoma, 31.7 µM; in the assay on U251 CNS it was 16.9 µM.

As to `C=C1C(=O)OC2/C=C(\CO)C(OC(C)=O)CC(O)/C(C)=C/C(OC(=O)C(C)CC)C12` (stereo unspecified), the GI50 in the assay on MOLT-4 leukemia was 11 µM and 22.6 µM. The TGI in the assay on MOLT-4 leukemia is 28.2 µM and 64.3 µM; with A549 NSCLC it was above 100 µM; in the assay with HCC-2998 colon it was 52.7 µM and 30.4 µM; in the assay on SNB-75 CNS, 69.3 µM and 96.3 µM; in the assay with MCF7 breast it was 25.8 µM; in the assay on TK-10 renal, 36 µM and 38.7 µM. In addition, the TGI in the assay with OVCAR-8 ovarian was 36.4 µM and 52.1 µM; with NCI-H460 lung, 63.6 µM and > 100 µM; in the assay with M14 melanoma it was 31.1 µM and 33.3 µM; in the assay on U251 CNS it was > 91.6 µM and 66.3 µM.
